Measured values published in the supplement of paper PMC10307832.

Assays:
Experiment in all cases: relative viability (nuclei count vs DMSO), 5 days (fraction); higher = more cells survive
[1] = test system: NCI-H1563
Outline: (§1)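 Dosing by pin tool came one day after lung cancer cell lines were seeded in 1536-well plates, using either one drug or a fixed anchor-drug dose plus five library-drug doses (not always all listed) in √10 steps. After 5 days, nuclei were counted on 4× images. Relative viability is treated-well nuclei count divided by vehicle-well nuclei count, and values are medians of duplicate plates.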

[2] = test system: EKVX
Outline: as §1

[3] = test system: NCI-H2405
Outline: as §1

[4] = test system: LK-2
Outline: as §1

[5] = test system: NCI-H2126
Outline: as §1

[6] = test system: SW 900
Outline: as §1

[7] = test system: NCI-H23
Outline: as §1

[8] = test system: RERF-LC-KJ
Outline: as §1

[9] = test system: NCI-H1666
Outline: as §1

[10] = test system: NCI-H322M
Outline: as §1

[11] = test system: LXF-289
Outline: as §1

[12] = test system: HCC-78
Outline: as §1

[13] = test system: EPLC-272H
Outline: as §1

[14] = test system: NCI-H2342
Outline: as §1

[15] = test system: ChaGo-K-1
Outline: as §1

[16] = test system: LU99A
Outline: as §1

[17] = test system: HCC-827
Outline: as §1

[18] = test system: LCLC-103H
Outline: as §1

[19] = test system: EMC-BAC-2
Outline: as §1

[20] = test system: NCI-H1975
Outline: as §1

[21] = test system: SW 1573
Outline: as §1

[22] = test system: SK-LU-1
Outline: as §1

[23] = test system: PC-14
Outline: as §1

`COc1nc(C)cnc1NS(=O)(=O)c1cccnc1-c1ccc(-c2nnco2)cc1` [Zibotentan] + Nc1nc2[nH]cc(CCc3ccc(C(=O)N[C@@H](CCC(=O)O)C(=O)O)cc3)c2c(=O)[nH]1 [Pemetrexed] (partner 0.2 µM) was tested, and the relative viability ([1]; first compound 0.08 µM) was 0.827, the relative viability ([1]; first compound 0.253 µM) was 0.703 and the relative viability ([1]; first compound 0.8 µM) was 0.757. It also gave a relative viability ([1]; first compound 2.53 µM) of 0.66, a relative viability ([2]; first compound 0.08 µM) of 0.347 and a relative viability ([2]; first compound 0.253 µM) of 0.384. For the same molecule, the relative viability ([2]; first compound 0.8 µM) was 0.372, the relative viability ([2]; first compound 2.53 µM) was 0.463 and the relative viability ([3]; first compound 0.08 µM) was 1.15. The relative viability ([3]; first compound 0.253 µM) was 0.975, the relative viability ([3]; first compound 0.8 µM) was 1.06 and the relative viability ([3]; first compound 2.53 µM) was 1.21. It also gave a relative viability ([4]; first compound 0.08 µM) of 0.299, a relative viability ([4]; first compound 0.253 µM) of 0.252 and a relative viability ([4]; first compound 0.8 µM) of 0.302. It also gave a relative viability ([4]; first compound 2.53 µM) of 0.208, a relative viability ([5]; first compound 0.08 µM) of 0.713 and a relative viability ([5]; first compound 0.253 µM) of 0.657. For the same molecule, the relative viability ([5]; first compound 0.8 µM) was 0.435, the relative viability ([5]; first compound 2.53 µM) was 0.78 and the relative viability ([6]; first compound 0.08 µM) was 0.503. It also gave a relative viability ([6]; first compound 0.253 µM) of 0.461, a relative viability ([6]; first compound 0.8 µM) of 0.656 and a relative viability ([6]; first compound 2.53 µM) of 0.472. It also gave a relative viability ([7]; first compound 0.08 µM) of 0.738, a relative viability ([7]; first compound 0.253 µM) of 0.395 and a relative viability ([7]; first compound 0.8 µM) of 0.456. It also gave a relative viability ([7]; first compound 2.53 µM) of 0.915, a relative viability ([8]; first compound 0.08 µM) of 0.5 and a relative viability ([8]; first compound 0.253 µM) of 0.464. The relative viability ([8]; first compound 0.8 µM) was 0.438, the relative viability ([8]; first compound 2.53 µM) was 0.481 and the relative viability ([9]; first compound 0.08 µM) was 0.842. For the same molecule, the relative viability ([9]; first compound 0.253 µM) was 0.726, the relative viability ([9]; first compound 0.8 µM) was 0.862 and the relative viability ([9]; first compound 2.53 µM) was 0.829. The relative viability ([10]; first compound 0.08 µM) was 0.661, the relative viability ([10]; first compound 0.253 µM) was 0.553 and the relative viability ([10]; first compound 0.8 µM) was 0.526. It also gave a relative viability ([10]; first compound 2.53 µM) of 0.65, a relative viability ([11]; first compound 0.08 µM) of 0.88 and a relative viability ([11]; first compound 0.253 µM) of 0.936. The relative viability ([11]; first compound 0.8 µM) was 0.854, the relative viability ([11]; first compound 2.53 µM) was 0.916 and the relative viability ([12]; first compound 0.08 µM) was 0.876. The relative viability ([12]; first compound 0.253 µM) was 0.892, the relative viability ([12]; first compound 0.8 µM) was 0.877 and the relative viability ([12]; first compound 2.53 µM) was 0.889. It also gave a relative viability ([13]; first compound 0.253 µM) of 0.319, a relative viability ([13]; first compound 0.8 µM) of 0.309 and a relative viability ([13]; first compound 2.53 µM) of 0.405. For the same molecule, the relative viability ([14]; first compound 0.08 µM) was 0.769, the relative viability ([14]; first compound 0.253 µM) was 0.729 and the relative viability ([14]; first compound 0.8 µM) was 0.761. For the same molecule, the relative viability ([14]; first compound 2.53 µM) was 0.797, the relative viability ([15]; first compound 0.08 µM) was 0.261 and the relative viability ([15]; first compound 0.253 µM) was 0.258. It also gave a relative viability ([15]; first compound 0.8 µM) of 0.275, a relative viability ([15]; first compound 2.53 µM) of 0.351 and a relative viability ([16]; first compound 0.08 µM) of 0.169. The relative viability ([16]; first compound 0.253 µM) was 0.177, the relative viability ([16]; first compound 0.8 µM) was 0.14 and the relative viability ([16]; first compound 2.53 µM) was 0.198. For the same molecule, the relative viability ([17]; first compound 0.08 µM) was 0.262, the relative viability ([17]; first compound 0.253 µM) was 0.272 and the relative viability ([17]; first compound 0.8 µM) was 0.241. It also gave a relative viability ([17]; first compound 2.53 µM) of 0.294, a relative viability ([18]; first compound 0.08 µM) of 0.428 and a relative viability ([18]; first compound 0.253 µM) of 0.471. The relative viability ([18]; first compound 0.8 µM) was 0.429, the relative viability ([18]; first compound 2.53 µM) was 0.533 and the relative viability ([19]; first compound 0.08 µM) was 0.457. For the same molecule, the relative viability ([19]; first compound 0.8 µM) was 0.406, the relative viability ([19]; first compound 2.53 µM) was 0.44 and the relative viability ([20]; first compound 0.08 µM) was 0.308. The relative viability ([20]; first compound 0.253 µM) was 0.281, the relative viability ([20]; first compound 0.8 µM) was 0.289 and the relative viability ([20]; first compound 2.53 µM) was 0.299. The relative viability ([21]; first compound 0.08 µM) was 0.872, the relative viability ([21]; first compound 0.8 µM) was 0.783 and the relative viability ([21]; first compound 2.53 µM) was 0.823. For the same molecule, the relative viability ([22]; first compound 0.08 µM) was 0.95, the relative viability ([22]; first compound 0.253 µM) was 0.705 and the relative viability ([22]; first compound 0.8 µM) was 1.01. For the same molecule, the relative viability ([22]; first compound 2.53 µM) was 0.99, the relative viability ([23]; first compound 0.08 µM) was 0.143 and the relative viability ([23]; first compound 0.253 µM) was 0.12. The relative viability ([23]; first compound 0.8 µM) was 0.129 and the relative viability ([23]; first compound 2.53 µM) was 0.144.
